Patent US20240158446A1, “CYCLIC COMPOUND HAVING SELECTIVE INHIBITORY ACTION ON KRAS OVER HRAS AND NRAS” (CHUGAI SEIYAKU KABUSHIKI KAISHA, priority 2021, published 2024)
Where two headings read alike, the source gives them in different places. Where a SMILES comes first, the peptide text is derived from it. Bridges are numbered along the chain shown (N, C = ends). [ ]: non-standard residue; d: D form. The star is where a group is joined. hPhe(3-Cl-4-CF3) = N[C@@H](CCc1ccc(C(F)(F)F)c(Cl)c1)C(=O)O; NPrPhe(4-CF3) = CCCN[C@@H](Cc1ccc(C(F)(F)F)cc1)C(=O)O; NEtPhe(4-Me) = CCN[C@@H](Cc1ccc(C)cc1)C(=O)O; NMeGly(cPent) = CN[C@H](C(=O)O)C1CCCC1; NMeD = CN[C@@H](CC(=O)O)C(=O)O; NMeL = CN[C@@H](CC(C)C)C(=O)O; Morpholide = C1CN(*)CCO1; NMeA = CN[C@@H](C)C(=O)O; Ac5c = NC1(C(=O)O)CCCC1; Aze = O=C(O)[C@@H]1CCN1; Sar = CNCC(=O)O

Experiments:
[1] = target: GDP-bound KRAS wild-type protein (Homo sapiens, UniProt P01116); experiment: Binding to KRAS by surface plasmon resonance (SPR), Single Cycle Kinetics; conditions: GDP-bound KRAS wild-type protein, read-out: KRAS KD
Sequence of GDP-bound KRAS wild-type protein (P01116 whole entry): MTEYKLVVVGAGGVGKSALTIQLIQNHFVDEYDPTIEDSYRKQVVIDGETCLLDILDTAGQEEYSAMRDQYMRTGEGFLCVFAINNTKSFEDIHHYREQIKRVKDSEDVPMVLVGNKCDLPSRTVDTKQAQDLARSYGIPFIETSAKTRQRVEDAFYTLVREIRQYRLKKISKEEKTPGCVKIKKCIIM

[2] = target: GDP-bound NRAS wild-type protein (Homo sapiens, UniProt P01111); experiment: Binding to NRAS by surface plasmon resonance (SPR), Single Cycle Kinetics; conditions: for NRAS/KRAS (ratio of KD value for NRAS to KD value for KRAS) / NRAS/KRAS (ratio of KD value with respect to NRAS to KD value with respect to KRAS): SPR, GDP-bound NRAS wild-type protein vs GDP-bound KRAS wild-type protein
Sequence of GDP-bound NRAS wild-type protein (P01111 whole entry): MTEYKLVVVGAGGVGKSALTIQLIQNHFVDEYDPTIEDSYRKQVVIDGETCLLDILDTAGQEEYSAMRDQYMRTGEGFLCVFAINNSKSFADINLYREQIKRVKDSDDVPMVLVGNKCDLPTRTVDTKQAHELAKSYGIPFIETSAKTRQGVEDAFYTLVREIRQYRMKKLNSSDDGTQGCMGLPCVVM

[3] = target: GDP-bound HRAS wild-type protein (Homo sapiens, UniProt P01112); experiment: Binding to HRAS by surface plasmon resonance (SPR), Single Cycle Kinetics; conditions: for HRAS/KRAS (ratio of KD value for HRAS to KD value for KRAS) / HRAS/KRAS (ratio of KD value with respect to HRAS to KD value with respect to KRAS): SPR, GDP-bound HRAS wild-type protein vs GDP-bound KRAS wild-type protein
Sequence of GDP-bound HRAS wild-type protein (P01112 whole entry): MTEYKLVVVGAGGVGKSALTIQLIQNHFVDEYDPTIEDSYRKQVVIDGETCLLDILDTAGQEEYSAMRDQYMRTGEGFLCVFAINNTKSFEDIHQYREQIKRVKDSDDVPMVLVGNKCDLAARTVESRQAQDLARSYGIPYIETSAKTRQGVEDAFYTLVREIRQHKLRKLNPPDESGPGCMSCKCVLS

[4] = SPR Single Cycle Kinetics, 1:1 binding model

## CCC(CC)[C@H]1C(=O)N(C)[C@H](C(=O)N(C)C)CC(=O)N(C)[C@H]2CCC/C=C/c3ccc(cc3)C[C@@H](C(=O)N(C)CC(=O)N[C@@H](CCc3cc(F)c(C(F)(F)F)c(F)c3)C(=O)N3CCC[C@H]3C(=O)NC3(CC(C)(C)C3)C(=O)N1C)N1CC/C=C\C[C@@H](C1=O)N(C)C(=O)CN(C)C(=O)[C@H]([C@@H](C)CC)NC2=O [PP2600]
[1]; [4]
  Kd: 170 pM
[2]; SPR KD ratio NRAS/KRAS, class symbols
  NRAS/KRAS (ratio of KD value with respect to GDP-bound NRAS wild-type protein to KD value with respect to KRAS): A (a compound having 10 or more and less than 20 is denoted as A)
[3]; SPR KD ratio HRAS/KRAS, class symbols
  HRAS/KRAS (ratio of KD value with respect to GDP-bound HRAS wild-type protein to KD value with respect to KRAS): A (a compound having 10 or more and less than 20 is denoted as A)

## CC[C@H](C)[C@@H]1NC(=O)[C@H](CC(C)C)N(C)C(=O)C[C@@H](C(=O)N2CCOCC2)N(C)C(=O)[C@H](CC(C)C)N(C)C(=O)C2(CCCC2)NC(=O)[C@@H]2CCCN2C(=O)[C@H](CCc2ccc(C(F)(F)F)c(Cl)c2)NC(=O)CN(C)C(=O)[C@H](Cc2ccc(C)cc2)N(CC)C(=O)CN(C)C(=O)CN(C)C1=O [PP0045] ([NMeL]I[Sar][Sar][NEtPhe(4-Me)][Sar][hPhe(3-Cl-4-CF3)]P[Ac5c][NMeL][NMeD]-Morpholide; lactam N-11)
[1]; [4]
  Kd: 2300 pM
[2]
  NRAS/KRAS (ratio of KD value for NRAS to KD value for KRAS): C (A compound having a KD ratio of 0.1 or more and less than 3 is denoted as C)
[3]
  HRAS/KRAS (ratio of KD value for HRAS to KD value for KRAS): C (A compound having a KD ratio of 0.1 or more and less than 3 is denoted as C)

## CCO[C@@H]1C[C@H]2C(=O)NC3(CC(C)(C)C3)C(=O)N(C)[C@@H](C(CC)CC)C(=O)N(C)[C@H](C(=O)N(C)C)CC(=O)N(C)[C@H]3CCCCC/C=C/c4ccc(cc4)C[C@@H](C(=O)N(C)CC(=O)N[C@@H](CCc4cc(F)c(C(F)(F)F)c(F)c4)C(=O)N2C1)N1CC/C=C\C[C@@H](C1=O)N(C)C(=O)CN(C)C(=O)[C@H]([C@@H](C)CC)NC3=O [PP3048]
[1]; SPR, Single Cycle Kinetics
  Kd: 110 pM
[2]
  NRAS/KRAS (ratio of KD value for NRAS to KD value for KRAS): A (a compound having 10 or more and less than 20 is denoted as A)
[3]
  HRAS/KRAS (ratio of KD value for HRAS to KD value for KRAS): A (a compound having 10 or more and less than 20 is denoted as A)

## CCO[C@@H]1C[C@H]2C(=O)NC3(CCC3)C(=O)N(C)[C@@H](C3CCCC3)C(=O)N(CCc3ccccc3)[C@H](C(=O)N(C)C)CC(=O)N(C)[C@@H](CC)C(=O)N[C@@H]([C@@H](C)CC)C(=O)N(C)CC(=O)N(C)[C@H]3CCCCCN(C3=O)[C@@H](Cc3ccc(C(F)(F)F)cc3)C(=O)N(C)CC(=O)N[C@@H](CCc3cc(F)c(C(F)(F)F)c(F)c3)C(=O)N2C1 [PP0637]
[1]; [4]
  Kd: 23000 pM
[2]
  NRAS/KRAS (ratio of KD value with respect to NRAS to KD value with respect to KRAS): B (a compound having 3 or more and less than 10 is denoted as B)
[3]
  HRAS/KRAS (ratio of KD value with respect to HRAS to KD value with respect to KRAS): B (a compound having 3 or more and less than 10 is denoted as B)

## CCCN1C(=O)[C@@H]2CCN2C(=O)[C@H](C)N(C)C(=O)[C@H]([C@@H](C)CC)NC(=O)[C@H](CC(C)C)N(C)C(=O)C[C@@H](C(=O)N2CCOCC2)N(C)C(=O)[C@H](C2CCCC2)N(C)C(=O)C2(CCCC2)NC(=O)[C@@H]2CCCN2C(=O)[C@H](CCc2ccc(C(F)(F)F)c(Cl)c2)NC(=O)CN(C)C(=O)[C@@H]1Cc1ccc(C(F)(F)F)cc1 [PP0053] ([NMeL]I[NMeA][Aze][NPrPhe(4-CF3)][Sar][hPhe(3-Cl-4-CF3)]P[Ac5c][NMeGly(cPent)][NMeD]-Morpholide; lactam N-11)
[1]; [4]
  Kd: 120 pM
[2]
  NRAS/KRAS (ratio of KD value for NRAS to KD value for KRAS): C (A compound having a KD ratio of 0.1 or more and less than 3 is denoted as C)
[3]
  HRAS/KRAS (ratio of KD value for HRAS to KD value for KRAS): C (A compound having a KD ratio of 0.1 or more and less than 3 is denoted as C)

## CCO[C@@H]1C[C@H]2C(=O)NC3(CCC3)C(=O)N(C)[C@@H](C3CCCC3)C(=O)N(C)[C@H](C(=O)N3CCOCC3)CC(=O)N(C)[C@@H](CC3CCCCC3)C(=O)N[C@@H]([C@@H](C)CC)C(=O)N(C)CC(=O)N(C)[C@H]3CCCCN(C3=O)[C@@H](Cc3ccc(C(F)(F)F)cc3)C(=O)N(C)CC(=O)N[C@@H](CCc3cc(F)c(C(F)(F)F)c(F)c3)C(=O)N2C1 [PP0716]
[1]; [4]
  Kd: 55 pM
[2]
  NRAS/KRAS (ratio of KD value with respect to NRAS to KD value with respect to KRAS): C (A compound having a KD ratio of 0.1 or more and less than 3 is denoted as C)
[3]
  HRAS/KRAS (ratio of KD value with respect to HRAS to KD value with respect to KRAS): B (a compound having 3 or more and less than 10 is denoted as B)
